Measured values taken from patent publication US9533961B2, “Molecules having certain pesticidal utilities, and intermediates, compositions, and processes related thereto” (priority 2014, dated 2017).

Key:
Assay type in all cases: in vivo
[1] = tested on: Beet Armyworm (Spodoptera exigua, LAPHEG) ("BAW"); assay: Bioassay on Beet Armyworm (BAW), 128-well diet tray assay; settings: 168 h, 50 μg/cm^2 on artificial diet, second instar larvae, five to seven days, 25° C., average of eight wells, read-out: BAW % Control (or Mortality) rating
Description: (§1) Certain molecules disclosed in this document were tested against BAW and CEW using procedures described in the following examples. In the reporting of the results, the “BAW & CL Rating Table” was used (See Table Section).
Bioassays on BAW were conducted using a 128-well diet tray assay. one to five second instar BAW larvae were placed in each well (3 mL) of the diet tray that had been previously filled with 1 mL of artificial diet to which 50 μg/cm^2 of the test compound (dissolved in 50 μL of 90:10 acetone-water mixture) had been applied (to each of eight wells) and then allowed to dry. Trays were covered with a clear self-adhesive cover and held at 25° C., 14:10 light-dark for five to seven days. Percent mortality was recorded for the larvae in each well; activity in the eight wells was then averaged. The results are indicated in the table entitled “Table ABC: Biological Results” (See Table Section).

[2] = tested on: Green Peach Aphid (Myzus persicae, MYZUPE) ("GPA"); assay: Bioassay on Green Peach Aphid (GPA), foliar spray on cabbage seedlings; settings: 72 h, 200 ppm foliar spray on cabbage seedlings, three days, Abbott corrected % control, read-out: GPA % Control (or Mortality) rating
Description: Certain molecules disclosed in this document were tested against GPA using procedures described in the following example. In the reporting of the results, the “GPA Rating Table” was used (See Table Section).
Cabbage seedlings grown in 3-inch pots, with 2-3 small (3-5 cm) true leaves, were used as test substrate. The seedlings were infested with 20-50 GPA (wingless adult and nymph stages) one day prior to chemical application. Four pots with individual seedlings were used for each treatment. Test compounds (2 mg) were dissolved in 2 mL of acetone/methanol (1:1) solvent, forming stock solutions of 1000 ppm test compound. The stock solutions were diluted 5× with 0.025% Tween 20 in water to obtain the solution at 200 ppm test compound. A hand-held aspirator-type sprayer was used for spraying a solution to both sides of […] leaves until runoff. Reference plants (solvent check) were sprayed with the diluent only containing 20% by volume of acetone/methanol (1:1) solvent. Treated plants were held in a holding room for three days at approximately 25° C. and ambient relative humidity (RH) prior to grading. Evaluation was conducted by counting the number of live aphids per plant under a microscope. Percent Control was measured by using Abbott's correction formula (W. S. Abbott, “A Method of Computing the Effectiveness of an Insecticide” J. Econ. Entomol. 18 (1925), pp. 265-267) as follows. Corrected % Control=100*(X−Y)/X • where • X=No. of live aphids on solvent check plants and • Y=No. of live aphids on treated plants

[3] = tested on: Yellow Fever Mosquito (Aedes aegypti, AEDSAE) ("YFM"); assay: Bioassay on Yellow Fever Mosquito (YFM), 96-well plate larval assay; settings: about 1 day-old larvae, from 4000 ppm master plate, scored on mortality after 3 days
Description: Certain molecules disclosed in this document were tested against YFM using procedures described in the following paragraph. In the reporting of the results, the “YFM Rating Table” was used (See Table Section).
Master plates containing 400 μg of a molecule dissolved in 100 μL of dimethyl sulfoxide (DMSO) (equivalent to a 4000 ppm solution) are used. A master plate of assembled molecules contains 15 μL per well. To this plate, 135 μL of a 90:10 water:acetone mixture is added to each well. A robot (Biomek® NXP Laboratory Automation Workstation) is programmed to dispense 15 μL aspirations from the master plate into an empty 96-well shallow plate (“daughter” plate). There are 6 reps (“daughter” plates) created per master. The created daughter plates are then immediately infested with YFM larvae.
The day before plates are to be treated, mosquito eggs are placed in Millipore water containing liver powder to begin hatching (4 g. into 400 mL). After the daughter plates are created using the robot, they are infested with 220 μL of the liver powder/larval mosquito mixture (about 1 day-old larvae). After plates are infested with mosquito larvae, a non-evaporative lid is used to cover the plate to reduce drying. Plates are held at room temperature for 3 days prior to grading. After 3 days, each well is observed and scored based on mortality.

[4] = tested on: Cabbage Looper (Trichoplusia ni, TRIPNI) ("CL"); assay: Bioassay on Cabbage Looper (CL), 128-well diet tray assay; settings: 168 h, read-out: CL % Control (or Mortality) rating
Description: as §1
Bioassays on CL were conducted using a 128-well diet tray assay. one to five second instar CL larvae were placed in each well (3 mL) of the diet tray that had been previously filled with 1 mL of artificial diet to which 50 μg/cm^2 of the test compound (dissolved in 50 μL of 90:10 acetone-water mixture) had been applied (to each of eight wells) and then allowed to dry. Trays were covered with a clear self-adhesive cover and held at 25° C., 14:10 light-dark for five to seven days. Percent mortality was recorded for the larvae in each well; activity in the eight wells was then averaged. The results are indicated in the table entitled “Table ABC: Biological Results” (See Table Section).

Row | SMILES | mortality at 50 µg/cm2 [1] | mortality at 200 ppm [2] | YFM % Control (or Mortality) rating [3] | mortality at 50 µg/cm2 [4]
1 | COc1cccc(C(=O)Nc2ccc(-c3ncn(-c4ccc(OC(F)(F)C(F)(F)F)cc4)n3)cc2)c1 [F14, 3-Methoxy-N-(4-(1-(4-(perfluoroethoxy)phenyl)-1H-1,2,4-triazol-3-yl)phenyl)benzamide] | 50 to 100% | 0% | A (80-100) | 50 to 100%
2 | CC(C)c1cccc(C(=O)NCCc2ccc(-c3ncn(-c4ccc(OC(F)(F)F)cc4)n3)cc2)c1 [F41, 3-Isopropyl-N-(4-(1-(4-(trifluoromethoxy)phenyl)-1H-1,2,4-triazol-3-yl)phenethyl)benzamide] | 0% | 0% | D (No activity noticed in this bioassay) | 50 to 100%
